Data taken from patent US12404295B2, “(Hetero)aryl-methyl-thio-beta-D-galactopyranoside derivatives” (Idorsia Pharmaceuticals Ltd, priority 2019, dated 2025).

Tests used:
human Gal-3 (hGal-3) = human Gal-3 (hGal-3) (Homo sapiens (Human), UniProt P17931); test: competitive binding assay: biotinylated hGal-3 binding to microplate-adsorbed asialofetuin (ASF); settings: Table 11; read-out: IC50 (Gal-3 inhibition)
In short: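 Serial DMSO dilutions of each compound; binding incubation of 3 hours at 4 °C with cold-buffer washes; detection using 80 ng/mL streptavidin-peroxidase for 1 hour, then ABTS. Multiple determinations were averaged to give the IC50.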

human Gal-1 (hGal-1) = human Gal-1 (hGal-1) (Homo sapiens (Human), UniProt P09382); test: competitive binding assay: biotinylated hGal-1 binding to microplate-adsorbed asialofetuin (ASF); settings: Table 15; read-out: IC50 (Galectin-1 inhibition)
In short: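 Spectrophotometric competition readout: after compound and biotinylated hGal-1 (300-1000 ng/mL) sit 3 h at 4° C on adsorbed asialofetuin, streptavidin-peroxidase (1 h, 4° C) and ABTS reveal residual binding. Reported IC50 values are means of repeat runs.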

Chain of human Gal-1 (hGal-1) (P09382 whole entry): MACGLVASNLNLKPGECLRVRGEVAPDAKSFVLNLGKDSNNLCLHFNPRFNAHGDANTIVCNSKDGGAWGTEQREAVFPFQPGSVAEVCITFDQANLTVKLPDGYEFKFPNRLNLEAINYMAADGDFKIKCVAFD
Chain of human Gal-3 (hGal-3) (P17931 whole entry): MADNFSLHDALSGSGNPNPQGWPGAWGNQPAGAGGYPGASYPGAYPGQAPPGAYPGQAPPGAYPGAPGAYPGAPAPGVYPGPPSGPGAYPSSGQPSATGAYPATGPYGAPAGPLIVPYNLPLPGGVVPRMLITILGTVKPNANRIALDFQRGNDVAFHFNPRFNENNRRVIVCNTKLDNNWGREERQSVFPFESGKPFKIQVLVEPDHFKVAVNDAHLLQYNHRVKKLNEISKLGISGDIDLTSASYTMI

SMILES	IC50 (human Gal-3 (hGal-3)) [nM]	IC50 (human Gal-1 (hGal-1)) [nM]
CO[C@@H]1[C@@H](n2cc(-c3cc(F)c(F)c(F)c3)nn2)[C@@H](O)[C@@H](CO)O[C@H]1S[C@@H](c1nccc(Cl)c1Cl)C1(O)CCC(F)(F)CC1 [Example 2.44.143S.I., (2R,3R,4S,5R,6S)-6-(((S)-(3,4-Dichloropyridin-2-yl)(4,4-difluoro-1-hydroxycyclohexyl)methyl)thio)-2-(hydroxymethyl)-5-methoxy-4-(4-(3,4,5-trifluorophenyl)-1H-1,2,3-triazol-1-yl)tetrahydro-2H-pyran-3-ol]	9970	9770
CO[C@@H]1[C@@H](n2cc(-c3cc(F)c(F)c(F)c3)nn2)[C@@H](O)[C@@H](CO)O[C@H]1SC(c1noc(C2CC2)c1C)C1(O)CCC(F)(F)CC1 (some centres unmarked) [Example 2.44.145.I.]	710	1260
CCCc1onc(C(S[C@@H]2O[C@H](CO)[C@H](O)[C@H](n3cc(-c4cc(F)c(F)c(F)c4)nn3)[C@H]2OC)C2(O)CCC(F)(F)CC2)c1CC (stereo partly drawn) [Example 2.44.146.I., (2R,3R,4S,5R,6S)-6-(((4,4-Difluoro-1-hydroxycyclohexyl)(4-ethyl-5-propylisoxazol-3-yl)methyl)thio)-2-(hydroxymethyl)-5-methoxy-4-(4-(3,4,5-trifluorophenyl)-1H-1,2,3-triazol-1-yl)tetrahydro-2H-pyran-3-ol]	120	170

Results, then the compound that gave them:

IC50 (human Gal-3 (hGal-3)) [nM]	IC50 (human Gal-1 (hGal-1)) [nM]	SMILES
250	4160	CO[C@@H]1[C@@H](n2cc(-c3cc(F)c(F)c(F)c3)nn2)[C@@H](O)[C@@H](CO)O[C@H]1SC(c1nc(Cl)ccc1Cl)C1(O)CCC(F)(F)CC1 (stereo partly drawn) [Example 2.44.144.I., (2R,3R,4S,5R,6S)-6-(((3,6-Dichloropyridin-2-yl)(4,4-difluoro-1-hydroxycyclohexyl)methyl)thio)-2-(hydroxymethyl)-5-methoxy-4-(4-(3,4,5-trifluorophenyl)-1H-1,2,3-triazol-1-yl)tetrahydro-2H-pyran-3-ol]
250	1200	CO[C@@H]1[C@@H](n2cc(-c3cc(F)c(F)c(F)c3)nn2)[C@@H](O)[C@@H](CO)O[C@H]1S[C@H](c1noc(C2CC2)c1C)C1(O)CCC(F)(F)CC1 [Example 2.44.145R.I., (2R,3R,4S,5R,6S)-6-(((R)-(5-Cyclopropyl-4-methylisoxazol-3-yl)(4,4-difluoro-1-hydroxycyclohexyl)methyl)thio)-2-(hydroxymethyl)-5-methoxy-4-(4-(3,4,5-trifluorophenyl)-1H-1,2,3-triazol-1-yl)tetrahydro-2H-pyran-3-ol]
11200	31000	CO[C@@H]1[C@@H](n2cc(-c3cc(F)c(F)c(F)c3)nn2)[C@@H](O)[C@@H](CO)O[C@H]1S[C@@H](c1noc(C2CC2)c1C)C1(O)CCC(F)(F)CC1 [Example 2.44.145S.I., (2R,3R,4S,5R,6S)-6-(((S)-(5-Cyclopropyl-4-methylisoxazol-3-yl)(4,4-difluoro-1-hydroxycyclohexyl)methyl)thio)-2-(hydroxymethyl)-5-methoxy-4-(4-(3,4,5-trifluorophenyl)-1H-1,2,3-triazol-1-yl)tetrahydro-2H-pyran-3-ol]
240	1240	CO[C@@H]1[C@@H](n2cc(-c3cc(F)c(F)c(F)c3)nn2)[C@@H](O)[C@@H](CO)O[C@H]1SC(c1nccc(C(F)(F)F)c1C)C1(O)CCC(F)(F)CC1 (stereo partly drawn) [Example 2.44.147.I., (2R,3R,4S,5R,6S)-6-(((4,4-Difluoro-1-hydroxycyclohexyl)(3-methyl-4-(trifluoromethyl)pyridin-2-yl)methyl)thio)-2-(hydroxymethyl)-5-methoxy-4-(4-(3,4,5-trifluorophenyl)-1H-1,2,3-triazol-1-yl)tetrahydro-2H-pyran-3-ol]
